Non-standard residues stand in square brackets, D forms with d. Residues, ends and D or L forms follow the SMILES beside them. NMeThr(4R-Me,4-(CH2)6NHAc) = CN[C@H](C(=O)O)[C@H](O)[C@H](C)CCCCCCNC(C)=O; NMeL = CN[C@@H](CC(C)C)C(=O)O; NMeV = CN[C@H](C(=O)O)C(C)C; dNMeA = CN[C@H](C)C(=O)O; Abu = CC[C@H](N)C(=O)O
Legend:
[1] = test system: human T cells; conditions: cited from earlier work
[2] = test system: HIV-1 NL4.3; assay: HIV-1 nuclear import analysis, integrase Western blot of cytoplasmic and nuclear extracts; type: cell-based; conditions: 2 μM; 6 h post-infection; nuclear extract
Method: CD4+ HeLa cells (10^7 cells) were infected with NL4.3 (1 μg of p24) derived from 293T-transfected cells in the presence or absence of CPI-431-32 (2 μM). Six hours post-infection, cells were fractionated using the Thermo Scientific NE-PER nuclear and cytoplasmic extraction kit (Life Technologies). Cytoplasmic and nuclear extracts were analyzed by Western blotting using anti-HIV-1 integrase (Abcam), anti-CypA (Abcam) and anti-histone H2 (Abcam) antibodies.
Fig 4 CPI-431-32 blocks HIV-1 reverse transcription and nuclear import. TZM cells were infected with DNase-treated NL4-3 HIV-1 together with DMSO or CPI-431-32 (2 μM). Target cell DNA was isolated at the indicated times and was used to detect early (A) and late HIV-1 reverse transcripts (B). TZM cells were infected with NL4.3 in the presence or absence of CPI-431-32 (2 μM). Six hours post-infection, cells were fractionated and cytoplasmic and nuclear extracts analyzed by Western blotting (C). […]
To further elucidate the effects of CypA-capsid disruption, we analyzed how CPI-431-32 affects the distribution of incoming HIV-1 cores within the first 6 hours of infection as determined by the presence of the HIV-1 integrase protein. TZM cells were infected with HIV-1 NL4.3 for 6 h in the absence or presence of CPI-431-32, then fractionated into cytosolic and nuclear extracts for quantitation of HIV-1 integrase by Western blotting. […]

Structure (SMILES)	Cellular toxicity (in words) [1]	Nuclear accumulation of HIV-1 integrase (in words) [2]
C/C=C/C[C@@H](C)[C@@H](O)[C@H]1C(=O)N[C@@H](CC)C(=O)N(C)[C@H](C)C(=O)N(CC)[C@@H](C(C)C)C(=O)N[C@@H](C(C)C)C(=O)N(C)[C@@H](CC(C)C)C(=O)N[C@@H](C)C(=O)N[C@H](C)C(=O)N(C)[C@@H](CC(C)C)C(=O)N(C)[C@@H](CC(C)C)C(=O)N(C)[C@@H](C(C)C)C(=O)N1C [ALV, Alisporivir]	lack of cellular toxicity	–
CC[C@@H]1NC(=O)[C@H]([C@H](O)[C@H](C)CCCCCCNC(C)=O)N(C)C(=O)[C@H](C(C)C)N(C)C(=O)[C@H](CC(C)C)N(C)C(=O)[C@H](CC(C)C)N(C)C(=O)[C@@H](C)NC(=O)[C@H](C)NC(=O)[C@H](CC(C)C)N(C)C(=O)[C@H](C(C)C)NC(=O)[C@H](CC(C)C)N(C)C(=O)[C@@H](C)N(C)C1=O [CPI-431-32] (cyclo(A[dA][NMeL][NMeL][NMeV][NMeThr(4R-Me,4-(CH2)6NHAc)][Abu][dNMeA][NMeL]V[NMeL]))	–	completely prevented the nuclear accumulation of integrase

Reference: PMC4532424, “The Novel Cyclophilin Inhibitor CPI-431-32 Concurrently Blocks HCV and HIV-1 Infections via a Similar Mechanism of Action” (PLoS ONE, 2015)
